Values after ≈ are worked out from the molar mass of the structure shown.
What was measured:
[1] = tested on: Ascochyta pisi; test: Agar well inhibition zone, Ascochyta pisi (Ap); assay type: cell-based; conditions: Ascochyta pisi, 72 h, 15 μl per well, 3 days at 25° C.
Method: Ascochyta pisi (Ap) leaf, stem and pod rot
(§1) Each of the above mentioned 9 pathogens were separately innoculated into 100 ml of potato dextrose (PD) bouillon and shaken at 200 rpm at 25° C. for 7 days. The mycelium was harvested and homogenized for about 10 seconds in a Warring blender and 1-5 ml of the blended mycelium was transferred to petri dishes with a diameter of 14 cm. […] 20 ml of potato dextrose agar (PDA) having a temperature of 45° C. were poured into each of the petri dishes and thorougly mixed with the blended mycelium present therein. When the agar had solidified, wells of a diameter of 4 mm were punched in the agar, and 15 μl of test solutions containing varicus concentrations of compound Ia, Ib and IIa dissolved in ethanol was applied to each well. The plates were incubated for three days at 25° C. and the inhibition zones measured (in mm). […]

[2] = tested on: Sclerotinia sclerotiorum; test: Agar well inhibition zone, Sclerotinia sclerotiorum (Ss); assay type: cell-based; conditions: Sclerotinia sclerotiorum, 72 h, 15 μl per well, 3 days at 25° C.
Method: Sclerotinia sclerotiorum (Ss) white mould disease, stem rot
as §1

[3] = tested on: Botrytis cinerea; test: Agar well inhibition zone, Botrytis cinerea, mycelium plates (Bc1); assay type: cell-based; parameters: key to inhibition zone Bc1: clear; diffuse; very diffuse; +: very weak; conditions: 15 μl per well, 3 days at 25° C.
Method: (§2) Botrytis cinerea (Bc) grey mould
as §1

[4] = tested on: Monilinia fructigena; test: Agar well inhibition zone, Monilinia fructigena (Mf); assay type: cell-based; conditions: Monilinia fructigena, 72 h, 15 μl per well, 3 days at 25° C.
Method: Monilinia fructigena (Mf) brown rot, fruit rot
as §1

[5] = tested on: Phoma betae; test: Agar well inhibition zone, Phoma betae (Pb); assay type: cell-based; conditions: Neocamarosporium betae, 72 h, 15 μl per well, 3 days at 25° C.
Method: Phoma betae (Pb) seedling black rot, black leg
as §1

[6] = tested on: plant pathogenic fungi; test: In vitro fungicidal activity spectrum over the pathogens tested; assay type: cell-based
Method: The following pathogens were used:
(§3) Each of the above mentioned 9 pathogens were separately innoculated into 100 ml of potato dextrose (PD) bouillon and shaken at 200 rpm at 25° C. for 7 days. The mycelium was harvested and homogenized for about 10 seconds in a Warring blender and 1-5 ml of the blended mycelium was transferred to petri dishes with a diameter of 14 cm. […] 20 ml of potato dextrose agar (PDA) having a temperature of 45° C. were poured into each of the petri dishes and thorougly mixed with the blended mycelium present therein. When the agar had solidified, wells of a diameter of 4 mm were punched in the agar, and 15 μl of test solutions containing varicus concentrations of compound Ia, Ib and IIa dissolved in ethanol was applied to each well. The plates were incubated for three days at 25° C. and the inhibition zones measured (in mm).
(§4) The experiments were repeated and in the second run, Bc plates were made from Bc spores (the plates were termed Bc2) as such plates may result in a more uniform growth.

[7] = tested on: Botrytis cinerea; test: Agar well inhibition zone, Botrytis cinerea, plates made from spores (Bc2); assay type: cell-based
Method: as §2, §3, §4

[8] = tested on: Alternaria alternata; test: Agar well inhibition zone, Alternaria alternata (Aa); assay type: cell-based; conditions: Alternaria alternata, 72 h, 15 μl per well, 3 days at 25° C.
Method: Alternaria alternata (Aa) black mould coverings, leaf spot
as §3, §4

[9] = tested on: Botrytis cinerea; test: Fungicidal activity in vivo against Botrytis cinerea on sprayed plants; conditions: spray to run off, assessed after 6 days
Method: Activity of the compounds Ia and Ib against Botrytis cinerea Host: Lycopersicon esculentum (tomato, var. First in Field) […] plants (5 weeks old) were sprayed to run off with liquid solutions using a handhold sprayer (Bink Bullows 900). The solution (70% EtOH) had different concentrations of the compounds Ia and Ib. The plants were kept 24 hours in a green house to dry before they were inoculated with a spore suspension containing 1×10^5 spores/ml in 25% grape juice. The inoculation was carried out with a handhold atomizer (Wagner, Pico Bel). The plants were then incubated (16 hours light (1000 lux) and 8 hours dark) at 15°-20° C. in clear polyethylene bags to raise the relative humidity to 95-100%. After 6 days the assessment was done.

[10] = tested on: Phoma lingam; test: Agar well inhibition zone, Phoma lingam (Pl); assay type: cell-based; conditions: Plenodomus lingam, 72 h, 15 μl per well, 3 days at 25° C., read-out: inhibition zone P1
Method: Phoma lingam (Pl) canker and dry rot
as §1

[11] = tested on: mouse peritoneal macrophage; test: Mouse peritoneal macrophage assay, chemiluminescence (phagocytosis); assay type: cell-based
[12] = tested on: mouse peritoneal macrophage; test: Mouse peritoneal macrophage assay, cellular ATP (viability); assay type: cell-based
[13] = tested on: Pyrenophora teres; test: Agar well inhibition zone, Pyrenophora teres (Pt); assay type: cell-based; parameters: key to inhibition zone Pt: clear; diffuse; very diffuse; +: very weak; conditions: 15 μl per well, 3 days at 25° C.
Method: Pyrenophora teres (Pt) net blotch disease
as §1

Q: What does the source list for `C[C@@H]1Cc2cc(O)cc(O)c2C(=O)O[C@H](C)CC(=O)O[C@H](CO)CC(=O)O[C@H](C)Cc2cc(O)cc(O)c2C(=O)O[C@H](C)CC(=O)O1` [Compound Ia]?
A: zone of inhibition at 10 µg/mL ([1]; 0.01 mg/ml): 0 mm; zone of inhibition at 50 µg/mL ([1]; 0.05 mg/ml): 0 mm; zone of inhibition at 500 µg/mL ([1]; 0.5 mg/ml): 0 mm; zone of inhibition at 1000 µg/mL ([1]; 1.0 mg/ml): 0 mm; zone of inhibition at 10 µg/mL ([2]; 0.01 mg/ml): 0 mm; zone of inhibition at 50 µg/mL ([2]; 0.05 mg/ml): 24 mm; zone of inhibition at 500 µg/mL ([2]; 0.5 mg/ml): 42 mm; zone of inhibition at 1000 µg/mL ([2]; 1.0 mg/ml): 50 mm; inhibition zone Bc1 ([3]; 0.05 mg/ml): +; inhibition zone Bc1 ([3]; 0.5 mg/ml): +; inhibition zone Bc1 ([3]; 1.0 mg/ml): +; zone of inhibition at 10 µg/mL ([3]; Botrytis cinerea, 72 h, 0.01 mg/ml): 0 mm; zone of inhibition at 10 µg/mL ([4]; 0.01 mg/ml): 20 mm; zone of inhibition at 50 µg/mL ([4]; 0.05 mg/ml): 34 mm; zone of inhibition at 500 µg/mL ([4]; 0.5 mg/ml): 45 mm; zone of inhibition at 1000 µg/mL ([4]; 1.0 mg/ml): 50 mm; zone of inhibition at 10 µg/mL ([5]; 0.01 mg/ml): 0 mm; zone of inhibition at 50 µg/mL ([5]; 0.05 mg/ml): 0 mm; zone of inhibition at 500 µg/mL ([5]; 0.5 mg/ml): 0 mm; zone of inhibition at 1000 µg/mL ([5]; 1.0 mg/ml): 0 mm; activity spectrum ([6]; all pathogens tested, Table 2): more effective than the compound of formula IIa; number of pathogens against which compound was active ([6]; with respect to Bc only for the plate containing spores): 5 pathogens; appearance of Bc zones ([7]; Bc plates): very diffuse; time of incubation after which Bc zones could be seen ([7]; Bc plates): ≥ 3 days; zone of inhibition at 50 µg/mL ([7]; Botrytis cinerea, 72 h, 0.05 mg/ml, 15 μl per well, 3 days at 25° C., plates from spores): 12 mm; zone of inhibition at 500 µg/mL ([7]; Botrytis cinerea, 72 h, 0.5 mg/ml, 15 μl per well, 3 days at 25° C., plates from spores): 48 mm; zone of inhibition at 1000 µg/mL ([7]; Botrytis cinerea, 72 h, 1.0 mg/ml, 15 μl per well, 3 days at 25° C., plates from spores): 56 mm; zone of inhibition at 10 µg/mL ([8]; 0.01 mg/ml): 0 mm; zone of inhibition at 50 µg/mL ([8]; 0.05 mg/ml): 0 mm; zone of inhibition at 500 µg/mL ([8]; 0.5 mg/ml): 0 mm; zone of inhibition at 1000 µg/mL ([8]; 1.0 mg/ml): 0 mm; protection ([9]; 37 ppm): approx. 10%; protection ([9]; 375 ppm): approx. 60%; protection ([9]; 1000 ppm): approx. 60%; zone of inhibition at 10 µg/mL ([10]; 0.01 mg/ml): 0 mm; zone of inhibition at 50 µg/mL ([10]; 0.05 mg/ml): 18 mm; zone of inhibition at 500 µg/mL ([10]; 0.5 mg/ml): 42 mm; zone of inhibition at 1000 µg/mL ([10]; 1.0 mg/ml): 49 mm; IC50 [11]: 2 µg/mL (≈ 3.02 µM); IC50 [12]: 2.5 µg/mL (≈ 3.77 µM); inhibition zone Pt ([13]; 0.05 mg/ml): +; zone of inhibition at 10 µg/mL ([13]; Pyrenophora teres, 72 h, 0.01 mg/ml): 0 mm; zone of inhibition at 500 µg/mL ([13]; Pyrenophora teres, 72 h, 0.5 mg/ml): 35 mm; zone of inhibition at 1000 µg/mL ([13]; Pyrenophora teres, 72 h, 1.0 mg/ml): 40 mm
